Converted amounts (≈) assume the structure as drawn. Read-outs that look alike come from different tables or passages of the source.
How the values were obtained:
[1] = tested on: Ba/F3-FL-TYK2-P760L cells; assay: Anti-proliferative assay in engineered Ba/F3 cells (Cell-Titer Glo, 72 h); format: cell-based; conditions: 72 h compound treatment, concentration that causes 50% growth inhibition, read-out: Baf3-FL-T2P760L
Summary of the method: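 Ba/F3 cells carrying Tel-dimerization/JAK kinase fusion, IL-3-independent, in RPMI-1640 + 10% FBS; 9-point 3-fold dilutions from 20 µM (0.1% DMSO) added after 24 h, 72 h at 37 °C. Viability by Cell-Titer Glo ATP luminescence; % inhibition versus DMSO cells, blank-corrected, giving IC50.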

pSTAT1 = assay: Phosphorylation inhibition of STAT in human whole blood (IFN-alpha stimulated, flow cytometry); format: cell-based; conditions: T-cell, 20 min, IFN-alpha stimulation 20 mins, CD3 T cells, read-out: pSTAT1 inhibition in hWB (IC50)
Summary of the method: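 Fresh human whole blood stimulated 20 min with human universal type I IFN-alpha, then fixed, permeabilised and stained for CD3 and pSTAT1 (Y701). pSTAT1 in T cells read by flow cytometry; IC50 from 4-parameter logistic fit.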

JAK1-JH2 domain = molecular target: T1, JAK1-JH2 domain (Homo sapiens, UniProt P23458); assay: Binding activity test for JH2 domain of JAK1 (Tb-antibody/tracer FRET); conditions: JH2 domain enzyme; 60 min at 25°C, then 4°C overnight; read-out: JAK1 JH2 Binding IC50
T1 construct: JAK1-JH2 domain or TYK2-JH2 domain enzyme in assay buffer
Summary of the method: (§1)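 Competitive TR-FRET binding: compounds dispensed as an 11-point 3-fold dilution series, then Tb-labelled antibody and tracer added to the JH2 protein system. Incubated at 25°C, then overnight at 4°C; FRET signal read on Envision and IC50 (nM) derived.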

TYK2 pathway = assay: IFN-γ release in NK92 cells stimulated by IL-12 (ELISA); format: cell-based; conditions: IL-12 2.5ng/mL stimulation 15hrs, IFN-γ in supernatant by ELISA
Description: IFN-γ Release in NK92 Cells Stimulated by IL-12
Purpose: To evaluate the inhibition activity of TYK2 inhibitors in NK92 cells on TYK2 pathway through ELISA method.
Procedure: 1) Seeding NK92 cells into 96-well plate, cell density is 1.5E5 cells/well, 100uL/well; 2)Add prepared test articles into indicated wells, 50uL/well, and continue incubate for 1h, at 37°C; 3) After compound treatment, add 50uL/well IL-12 into indicated wells, final concentration of IL-12 is 2.5ng/mL; 4)Incubate cytokine stimulated cells at 37°C for another 15hrs in CO2 incubator; 5) After cytokine stimulation, transfer culture supernatant into a new plate and centrifuge for 5min at 350x g, and detect IFN-γ concentration in the supernatant with ELISA kit; 6) Data analysis with GrapdPad Prism6.0 software. Table 5. IC50 Values of Exemplary Compounds on TYK2 Pathway

Kinetic solubility = format: physicochemical; conditions: phosphate buffer, pH 7.4, aqueous buffer, kinetic from dmso stock, 100 mM pH 7.4 phosphate buffer, 1% DMSO, room temperature, read-out: Kinetics Solubility_PBS7.4
Summary of the method: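 Compounds diluted from 10 mM/5 mM DMSO stocks into 100 mM phosphate buffer pH 7.4 (1% DMSO final), shaken 2 h at room temperature, then centrifuged. Dissolved compound in supernatant quantified by LC-MS/MS against a standard curve.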

TYK2-JH2 domain = molecular target: T2, TYK2-JH2 domain (Homo sapiens, UniProt P29597); assay: Binding activity test for JH2 domain of TYK2 (Tb-antibody/tracer FRET); conditions: for IC50: JH2 domain enzyme, 60 min at 25°C, then 4°C overnight, read-out: TYK2 JH2 Binding IC50; for JAK1/TYK2 selectivity: ratio of JAK1 JH2 to TYK2 JH2 binding IC50
T2 construct: JAK1-JH2 domain or TYK2-JH2 domain enzyme in assay buffer
Summary of the method: as §1

[2] = Microsomal metabolic stability assay; format: in vitro ADME; conditions: human, liver microsomes, pH 7.4, 0.5 mg/mL microsomal protein, 1 µM test article, 2 mM NADPH
Summary of the method: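 Test or control compound (1 µM) incubated with microsomes (0.5 mg/mL protein) in 100 mM potassium phosphate pH 7.4, 1.0 mM EDTA at 37°C, started with NADPH regenerating system (2 mM NADPH). Sampled at 0, 5, 15, 30, 45 min, acetonitrile-quenched, LC/MS/MS. T1/2 from ln %remaining vs time slope; CLint = 0.693/T1/2 per mg protein/mL.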

IFNa pSTAT1 = assay: Phosphorylation of STAT1 inhibition in HMC3 cells with HTRF assay; format: cell-based; conditions: Homo sapiens, HMC3 microglia cells, 50ng/mL hINFα 1 hour, read-out: HTRF_HMC3 IC 50 (IFNa pSTAT1)
Description: Seeding HMC3 cells into 96-well plate and incubate overnight. Pre-stimulation with recombinant human IFNα (Sino biological, H08Y), treat cells with compound with different concentration for 1hr. After compound treatment, stimulate cells with 50ng/mL hINFα for another 1 hour (for CCF-STTG1 cells IFNα induction time is 30 mins). After compound treatment and cytokine stimulation, dump old medium and lyse cells with supplemented lysis buffer provided by the HTRF kit (Revvity, 63ADK026PEG) for 30 min at room temperature under shaking. After homogenization by pipetting up and down, transfer 16 µL of cell lysate from the 96-well cell-culture plate to a small volume white 384-well plate, and then add 4 µL of pre-mixed two ready-to-use antibody working solution into each wells. Cover the plate with a plate sealer and incubate it overnight at room temperature. Read the fluorescence emission at two different wavelengths (665nm and 620nm) on microplate reader (Molecular Device, SpectraMax i3X). Collect data and analyzed with GraphPad Prism.

[3] = Brain pharmacokinetic studies in rats; format: in vivo, Sprague-Dawley rats; conditions: for half-life / Kp / AUC: rats, iv, solution; for Kp: read-out: Brain AUC/Systemic AUC; for brain exposure in Rats: result in words
Description: Pharmacokinetic profiles of test articles were evaluated in fasted Sprague-Dawley rats. Different kinds of formulations were designed to ensure test articles fully dissolved and wouldn't precipitate in 1:10 SGF or FaSSIF dilution. Typically, Rats were dosed with 3 mg/kg and 5 mg/kg by intravenous injection and oral gavage, respectively. The animal was restrained manually at the designated time points, approximately 150 µL of blood sample was collected via jugular vein for serial bleeding into K2EDTA tubes. The blood samples were maintained in wet ice first and centrifuged to obtain plasma (2000g, 4°C, 5 min) within 30 minutes post sampling. Anesthetizing the rat with the Isoflurane vaporizer to 2%~3% and place its back on the operation table. Spread the animal limbs and pin the limbs on the operation table. Make a cut along the sternum about 4cm long, low enough to expose the sternum's end. Expose the heart and use a 25-gauge needle connected with a 20 mL syringe filled with 20 mL of cold saline to pierce the left ventricle. Maintain the placement of the needle, and slowly push the syringe plunger to wash the brain with saline. The perfusion will be finished within about 2 min and then take the brain out of the body carefully without damaging the tissue. Dry the tissue on filtrate paper, which should be placed on ice, and then weigh the brain tissue and store at -70 °C and analyzed by LC/MS/MS for quantification. PK parameter values, including, but not necessarily limited to, the maximum plasma concentrations (Cmax), and the area under the plasma concentration vs. time curve (AUC) from time zero to 24-hour (AUC0-24h) were determined using WinNonlin program. Table 13. Systemic Pharmacokinetic Parameters in Sprague-Dawley Rats

[4] = Sprague-Dawley, rat, brain, 3 mg/kg
[5] = Sprague-Dawley, rat, brain, 2 mg/kg

T1 sequence (P23458 583-855 limits assumed): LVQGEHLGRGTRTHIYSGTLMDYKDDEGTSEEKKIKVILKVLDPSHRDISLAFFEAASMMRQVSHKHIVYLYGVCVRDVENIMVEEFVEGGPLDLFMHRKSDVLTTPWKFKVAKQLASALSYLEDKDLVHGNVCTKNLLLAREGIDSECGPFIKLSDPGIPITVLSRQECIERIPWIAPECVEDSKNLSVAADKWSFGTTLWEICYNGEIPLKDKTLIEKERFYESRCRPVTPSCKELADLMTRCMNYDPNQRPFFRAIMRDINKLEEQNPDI
T2 sequence (P29597 589-875 limits assumed): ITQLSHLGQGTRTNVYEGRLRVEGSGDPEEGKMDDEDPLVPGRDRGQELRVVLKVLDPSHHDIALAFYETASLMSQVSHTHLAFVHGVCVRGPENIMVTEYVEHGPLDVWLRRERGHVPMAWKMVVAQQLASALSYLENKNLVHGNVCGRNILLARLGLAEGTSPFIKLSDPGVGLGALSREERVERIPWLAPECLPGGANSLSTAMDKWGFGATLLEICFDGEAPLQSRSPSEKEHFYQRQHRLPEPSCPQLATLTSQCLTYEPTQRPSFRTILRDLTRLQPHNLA

Structure (SMILES)	IC50 (pSTAT1) [nM]	IC50 (JAK1-JH2 domain) [nM]	IC50 (TYK2 pathway) [nM]	IC50 (TYK2-JH2 domain) [nM]	JAK1/TYK2 selectivity (TYK2-JH2 domain)	IC50 ([1]; Mus musculus, BaF3, 72 h) [nM]	IC50 (IFNa pSTAT1) [nM]	also measured
[2H]C([2H])([2H])NC(=O)c1cnc(NC(=O)[C@@H]2C[C@@H]2F)cc1Nc1cnn2ccc(C(O)C(F)(F)F)c(OC)c12 (single isomer, unassigned) [Example 15A, 6-((1S,2S)-2-fluorocyclopropane-1-carboxamido)-4-((4-methoxy-5-((S*)-2,2,2-trifluoro-1-hydroxyethyl)pyrazolo[1,5-a]pyridin-3-yl)amino)-N-(methyl-d3)nicotinamide]	34.8	12.5	15.7	0.078	160.8			IC50 [1]: 10.6 nM; solubility kinetic at 2 h (Kinetic solubility): 23.9 µM (≈ 11.9 µg/mL); microsomal CLint at 1 µM ([2]; read-out: Human LM Clint): 11.9 µL/min/mg; half-life at 1 µM ([2]; read-out: Human LM T1/2): 1.94 h
CCn1nc(Nc2cc(NC(=O)C3CC3)ncc2C(=O)OC)c2c(OC)c(C(O)C(F)(F)F)ccc21 (single isomer, unassigned) [Example 70A, Methyl (S*)-6-(cyclopropanecarboxamido)-4-((1-ethyl-4-methoxy-5-(2,2,2-trifluoro-1-hydroxyethyl)-1H-indazol-3-yl)amino)nicotinate]	43.7	21.8		0.15	145.12	2.35	< 0.061	
COC(=O)c1cnc(NC(=O)C2CC2)cc1Nc1cnn2ccc([C@H](O)C(F)(F)F)c(OC)c12 [Example 26, Methyl (5)-6-(cyclopropanecarboxamido)-4-((4-methoxy-5-(2,2,2-trifluoro-1-hydroxyethyl)pyrazolo[1,5-a]pyridin-3-yl)amino)nicotinate]		61.9	17.6	0.183	338.1	35.2		half-life [3, 4]: 1.99 h; Kp [3, 4]: 0.11; half-life ([3]; Sprague-Dawley, rat, systemic (plasma), 3 mg/kg): 1.53 h; AUC ([3]; Sprague-Dawley, rat, systemic (plasma), 3 mg/kg, read-out: AUC): 1290 ng·h/mL; AUC ([3]; brain, 3 mg/kg): 140 ng·h/g; brain exposure in Rats [3]: good brain exposure
[2H]C([2H])([2H])NC(=O)c1cnc(NC(=O)C2CC2)cc1Nc1cnn2ccc([C@H](OC(C)=O)C(F)(F)F)c(OC)c12 [Example 43, (S)-1-(3-((2-(cyclopropanecarboxamido)-5-((methyl-d3)carbamoyl)pyridin-4-yl)amino)-4-methoxypyrazolo[1,5-a]pyridin-5-yl)-2,2,2-trifluoroethyl acetate]	174	71.3	22.6	0.175	407.2	20.6		solubility kinetic at 2 h (Kinetic solubility): 33.3 µM
[2H]C([2H])([2H])CC(=O)c1cnc(NC(=O)C2CC2)cc1Nc1nn(C)c2ccc([C@H](O)C(F)(F)F)c(OC)c12 [Example 54A, (S)-N-(4-((4-methoxy-1-methyl-5-(2,2,2-trifluoro-1-hydroxyethyl)-1H-indazol-3-yl)amino)-5-(propanoyl-3,3,3-d3)pyridin-2-yl)cyclopropanecarboxamide]	10.8	3.82		0.118	32.37	0.577	< 0.061	half-life [3, 5]: 1.64 h; Kp [3, 5]: 0.18; half-life ([3]; Sprague-Dawley, rat, systemic (plasma), 2 mg/kg): 1.7 h; AUC ([3]; Sprague-Dawley, rat, systemic (plasma), 2 mg/kg, read-out: AUC): 1060 ng·h/mL; AUC ([3]; brain, 2 mg/kg): 188 ng·h/g; brain exposure in Rats [3]: good brain exposure
COCC(OC)c1ccc2c(c(Nc3cc(NC(=O)C4CC4)ncc3C(=O)OC)nn2C)c1OC (stereo not drawn) [Example 159, Methyl 6-(cyclopropanecarbonylamino)-4-[[5-(1,2-dimethoxyethyl)-4-methoxy-1-methyl-indazol-3-yl]amino]pyridine-3-carboxylate]	129	8.21		0.203	40.45	6.29	0.082	
CCC(=O)c1cnc(NC(=O)C2CC2)cc1Nc1ccn2nccc2c1OC [Example 195, N-[4-[(4-Methoxypyrazolo[1,5-a]pyridin-5-yl)amino]-5-propanoyl-2-pyridyl]cyclopropanecarboxamide, reference compound]	> 5000	67.1	1500	2.96	22.68	329		

Reference: patent EP4813463A2, “TYK2 INHIBITORS AND COMPOSITIONS AND METHODS THEREOF” (Lynk Pharmaceuticals Co. Ltd., priority 2023, dated 2024)
